Data on 14 compounds can be found in US10858352B2, “Pharmaceutical compounds” (Heptares Therapeutics Limited, priority 2018, dated 2020).

Where two headings read alike, the source gives them in different places.

What all share (type): cell-based
Assay [1] deals with T1, human muscarinic M2 receptor (Homo sapiens, UniProt P08172).
T1 sequence (P08172 1-466): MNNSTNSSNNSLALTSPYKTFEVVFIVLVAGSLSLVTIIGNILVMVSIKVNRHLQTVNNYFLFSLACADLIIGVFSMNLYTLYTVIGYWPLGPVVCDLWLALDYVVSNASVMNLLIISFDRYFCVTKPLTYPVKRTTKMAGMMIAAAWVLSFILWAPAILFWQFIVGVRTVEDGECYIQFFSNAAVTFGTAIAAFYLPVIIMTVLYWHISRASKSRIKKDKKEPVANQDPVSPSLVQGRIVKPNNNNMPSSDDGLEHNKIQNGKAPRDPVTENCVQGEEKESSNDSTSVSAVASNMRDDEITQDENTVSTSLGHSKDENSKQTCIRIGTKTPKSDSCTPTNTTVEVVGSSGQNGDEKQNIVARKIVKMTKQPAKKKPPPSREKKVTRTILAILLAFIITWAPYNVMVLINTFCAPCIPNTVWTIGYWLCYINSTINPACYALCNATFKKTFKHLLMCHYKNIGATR
In words: Alphascreen Surefire phospho-ERK1/2 functional assay, M2. As to conditions: for Emax: CHO. The procedure:
(§1) ERK1/2 phosphorylation is a downstream consequence of both Gq/11 and Gi/o protein coupled receptor activation, making it highly suitable for the assessment of M1, M3 (Gq/11 coupled) and M2, M4 receptors (Gi/o coupled), rather than using different assay formats for different receptor subtypes. CHO cells stably expressing the human muscarinic M1, M2, M3 or M4 receptor were plated (25K/well) onto 96-well tissue culture plates in MEM-alpha+10% dialysed FBS. Once adhered, cells were serum-starved overnight. Agonist stimulation was performed by the addition of 5 μL agonist to the cells for 5 min (37° C.). Media was removed and 50 μL of lysis buffer added. After 15 min, a 4 μL sample was transferred to 384-well plate and 7 μL of detection mixture added. […]

The target of assay [2] is T2, human muscarinic M1 receptor (Homo sapiens, UniProt P11229).
T2 sequence (P11229 1-460): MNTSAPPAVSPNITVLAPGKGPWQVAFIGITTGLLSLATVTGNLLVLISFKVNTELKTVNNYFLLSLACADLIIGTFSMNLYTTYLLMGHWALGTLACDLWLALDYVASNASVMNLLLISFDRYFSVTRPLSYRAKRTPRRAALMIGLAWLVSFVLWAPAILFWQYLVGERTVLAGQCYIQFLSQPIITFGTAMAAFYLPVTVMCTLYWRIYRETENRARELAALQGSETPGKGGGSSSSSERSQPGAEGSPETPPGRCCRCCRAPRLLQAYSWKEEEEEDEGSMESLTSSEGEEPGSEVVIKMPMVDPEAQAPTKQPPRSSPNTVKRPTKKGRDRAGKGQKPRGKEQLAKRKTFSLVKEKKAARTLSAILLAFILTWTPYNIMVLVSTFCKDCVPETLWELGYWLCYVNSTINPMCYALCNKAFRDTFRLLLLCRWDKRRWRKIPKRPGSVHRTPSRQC
Briefly: Alphascreen Surefire phospho-ERK1/2 functional assay, M1. As to conditions: for % Emax cf. ACh (M1) / Emax: Emax relative to ACh; for EC50: agonist 5 min, 37° C.; for Emax: CHO, read-out: % Emax cf. ACh (M1), CHO cells stably expressing human M1. The procedure: as §1

The target of assay [3] is T3, human muscarinic M3 receptor (Homo sapiens, UniProt P20309).
T3 construct: expressed in transfected cells
In words: Alphascreen Surefire phospho-ERK1/2 functional assay, M3. The note with it: for Emax: CHO. On the procedure: as §1

Assay [4] concerns the target T4, human muscarinic M4 receptor (Homo sapiens, UniProt P08173).
T4 construct: expressed in transfected cells
T4 sequence (P08173 1-479): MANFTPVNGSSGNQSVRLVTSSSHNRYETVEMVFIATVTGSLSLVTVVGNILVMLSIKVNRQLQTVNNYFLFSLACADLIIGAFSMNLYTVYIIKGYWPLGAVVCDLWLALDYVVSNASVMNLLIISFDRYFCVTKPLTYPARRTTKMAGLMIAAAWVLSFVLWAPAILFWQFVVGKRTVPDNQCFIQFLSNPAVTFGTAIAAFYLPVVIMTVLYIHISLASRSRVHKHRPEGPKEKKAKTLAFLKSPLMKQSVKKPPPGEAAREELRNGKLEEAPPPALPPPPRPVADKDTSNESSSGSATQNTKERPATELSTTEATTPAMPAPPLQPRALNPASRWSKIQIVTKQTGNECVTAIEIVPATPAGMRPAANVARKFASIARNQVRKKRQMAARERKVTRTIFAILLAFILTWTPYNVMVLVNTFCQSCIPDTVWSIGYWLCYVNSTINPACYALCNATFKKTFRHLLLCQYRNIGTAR
In words: Alphascreen Surefire phospho-ERK1/2 functional assay, M4. As to conditions: for % Emax cf. ACh (M4) / EC50: CHO cells stably expressing human M4; for % Emax cf. ACh (M4) / Emax: Emax relative to ACh; for EC50: agonist 5 min, 37° C., read-out: pEC50 M4 (converted); for Emax: CHO, read-out: % Emax cf. ACh (M4), CHO cells stably expressing human M4. On the procedure: as §1

The mark [5] stands for this setting: CHO cells stably expressing human M2, agonist 5 min, 37° C., read-out: pEC50 M2 (converted).
Where [6] appears, read: CHO cells stably expressing human M1.
Setting [7] is: CHO cells stably expressing human M1, read-out: pEC50 M1 (converted).
The mark [8] stands for this setting: CHO cells stably expressing human M3, agonist 5 min, 37° C., read-out: pEC50 M3 (converted).
Where [9] appears, read: read-out: % Emax cf. ACh (M2), CHO cells stably expressing human M2, Emax relative to ACh.
The mark [10] stands for this setting: read-out: % Emax cf. ACh (M3), CHO cells stably expressing human M3, Emax relative to ACh.

T3 sequence (P20309 whole entry): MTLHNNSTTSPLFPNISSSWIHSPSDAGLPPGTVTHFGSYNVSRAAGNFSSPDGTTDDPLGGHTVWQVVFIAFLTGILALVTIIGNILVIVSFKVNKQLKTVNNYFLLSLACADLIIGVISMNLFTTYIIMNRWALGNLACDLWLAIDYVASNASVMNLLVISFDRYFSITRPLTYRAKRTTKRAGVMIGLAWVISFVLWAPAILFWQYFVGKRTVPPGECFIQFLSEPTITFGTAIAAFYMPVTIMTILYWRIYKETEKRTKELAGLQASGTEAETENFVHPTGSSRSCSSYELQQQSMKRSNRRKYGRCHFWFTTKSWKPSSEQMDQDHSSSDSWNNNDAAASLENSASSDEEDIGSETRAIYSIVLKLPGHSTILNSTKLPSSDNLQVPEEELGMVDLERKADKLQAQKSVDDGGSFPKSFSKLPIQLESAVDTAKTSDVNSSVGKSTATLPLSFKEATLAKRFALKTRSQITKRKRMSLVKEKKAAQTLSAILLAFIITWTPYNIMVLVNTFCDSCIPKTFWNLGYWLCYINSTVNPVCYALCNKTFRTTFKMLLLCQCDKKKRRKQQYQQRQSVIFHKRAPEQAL

For orientation: Emax means the size of the effect at its maximum, as opposed to the concentration needed. Regarding `Cc1noc(N2C3CCC2CC(N2CCC4(CC2)CNC(=O)O4)C3)n1` (single isomer, unassigned) [6-4 Isomer 2], the EC50 in assay [1] (setting [5]) was more than 20 µM; in assay [2] (setting [7]), 0.257 µM; in assay [3] (setting [8]) it was more than 20 µM; in assay [4], 0.525 µM. In addition, the Emax in assay [1] (read-out: % Emax cf. ACh (M2)) stood at 5%; in assay [3] (read-out: % Emax cf. ACh (M3)), 32%. The “% Emax cf. ACh (M1)” value in assay [2] (setting [6]) was “(87) %”. Further, the “% Emax cf. ACh (M4)” value in assay [4] is on record as “(39) %”.

Take `Cc1noc(N2C3CCC2CC(N2CCC(C(=O)NC4(C)CCC4)CC2)C3)n1` (single isomer, unassigned) [6-5 Isomer 2]: the EC50 in assay [1] (setting [5]) is more than 20 µM; in assay [2] (setting [7]) it was 0.148 µM; in assay [3] (setting [8]), more than 20 µM; in assay [4], 0.195 µM. The Emax turned out to be 31% in assay [1] (read-out: % Emax cf. ACh (M2)), 100% in assay [2], 11% in assay [3] (read-out: % Emax cf. ACh (M3)) and 79% in assay [4].

For the compound `Cc1noc(N2CC3CCC2CC3N2CCC(n3cccn3)CC2)n1` (single isomer, unassigned) [7-1 Isomer 1], the EC50 in assay [1] (setting [5]) was more than 20 µM; in assay [2] (setting [7]), more than 20 µM; in assay [3] (setting [8]), more than 20 µM; in assay [4], 0.151 µM. Moreover, the Emax in assay [1] (setting [9]) came out at 11%; in assay [2] it was 18%; in assay [3] (setting [10]), 7%; in assay [4], 85%.

On to `Cc1noc(N2CC3CCC2CC3N2CCC(n3cccn3)CC2)n1` (single isomer, unassigned) [7-1 Isomer 2], for which, in assay [1] (CHO cells stably expressing human M2, Emax relative to ACh), the “% Emax cf. ACh (M2)” value was “(15) %”. For the same compound, the “pEC50 M2” value in assay [1] (CHO cells stably expressing human M2, agonist 5 min, 37° C.) is recorded as less than 4.70. Also, the “% Emax cf. ACh (M1)” value in assay [2] (setting [6]) is on record as “(33) %”. The EC50 in assay [2] (setting [7]) was 2.29 µM. Besides, in assay [3] (CHO cells stably expressing human M3, Emax relative to ACh), the “% Emax cf. ACh (M3)” value was “(6) %”. Further, the “pEC50 M3” value in assay [3] (CHO cells stably expressing human M3, agonist 5 min, 37° C.) is less than 4.70. Moreover, in assay [4], the “% Emax cf. ACh (M4)” value was “(99) %” and the EC50 is 0.0851 µM.

Turning to `Cc1noc(N2C3CCCC2CC(N2CCC4(CC2)CNC(=O)O4)C3)n1` (single isomer, unassigned) [8-3 Isomer 1], the EC50 in assay [1] (setting [5]) is more than 20 µM; in assay [2] (setting [7]), 0.295 µM; in assay [3] (setting [8]) it was more than 20 µM; in assay [4], more than 20 µM. Moreover, the Emax in assay [1] (read-out: % Emax cf. ACh (M2)) worked out at 4%; in assay [2], 39%; in assay [3] (read-out: % Emax cf. ACh (M3)), 1%; in assay [4] it was 67%.

With `Cc1noc(N2C3COCC2CC(N2CCC(n4cccn4)CC2)C3)n1` (single isomer, unassigned) [9-1 Isomer 1], the EC50 in assay [1] (setting [5]) is more than 20 µM; in assay [2] (setting [7]) it was more than 20 µM; in assay [3] (setting [8]), more than 20 µM; in assay [4], 0.105 µM. Moreover, the Emax in assay [1] (read-out: % Emax cf. ACh (M2)) worked out at 21%; in assay [2], 15%; in assay [3] (read-out: % Emax cf. ACh (M3)) it was 1%; in assay [4], 77%.

In the case of `CCN(CC)C(=O)[C@H]1[C@@H]2CN(C3CC4COCC(C3)N4c3nc(C)no3)C[C@@H]21` (single isomer, unassigned) [9-2 Isomer 2], the EC50 in assay [1] (setting [5]) is more than 20 µM; in assay [2] (setting [7]), 0.219 µM; in assay [3] (setting [8]), 6.31 µM; in assay [4] it was 0.741 µM. Further, the Emax in assay [1] (read-out: % Emax cf. ACh (M2)) was 27%; in assay [2], 109%; in assay [3] (read-out: % Emax cf. ACh (M3)) it was 42%; in assay [4] it was 74%.

`Cc1noc(N2CCCC(N3CCC4(CC3)CNC(=O)C4)CC2)n1` (single isomer, unassigned) [10-2 Isomer 1]: the EC50 in assay [1] (setting [5]) is more than 20 µM; in assay [2] (setting [7]) it was 0.0933 µM; in assay [3] (setting [8]), more than 20 µM; in assay [4] it was more than 20 µM. For the same compound, the Emax in assay [1] (setting [9]) was 3%; in assay [2], 66%; in assay [3] (setting [10]) it was 5%; in assay [4] it was 10%.

With `Cc1noc(N2CCCC(N3CCC4(CC3)C(=O)Nc3ccccc34)CC2)n1` (single isomer, unassigned) [10-6 Isomer 1], the EC50 was more than 20 µM in assay [1]; 0.661 µM in assay [2] (pEC50 M1, CHO cells stably expressing human M1); more than 20 µM in assay [3]; 0.0776 µM in assay [4]. Further, the Emax in assay [1] (read-out: % Emax cf. ACh (M2)) came to 60%; in assay [2], 76%; in assay [3] (read-out: % Emax cf. ACh (M3)), 4%; in assay [4] it was 77%.

For the compound `Cc1noc(N2CCCC(N3CCC(N4C[C@H](F)C[C@@H]4CO)CC3)CC2)n1` (single isomer, unassigned) [10-7 Isomer 1], the EC50 in assay [1] (setting [5]) was more than 20 µM; in assay [2] (setting [7]) it was 3.72 µM; in assay [3] (setting [8]), more than 20 µM; in assay [4], 0.105 µM. The Emax in assay [1] (setting [9]) is 15%; in assay [3] (setting [10]) it was 2%; in assay [4], 89%. In assay [2] (setting [6]), the “% Emax cf. ACh (M1)” value was “(44) %”.

Consider `Cc1noc(N2CC3CC(N4CCC5(CC4)CNC(=O)C5)CC2C3)n1` (single isomer, unassigned) [11-2 Isomer 2], for which the EC50 in assay [1] (setting [5]) was more than 20 µM; in assay [2] (setting [7]), 0.00955 µM; in assay [3] (setting [8]), more than 20 µM; in assay [4], more than 20 µM. The Emax came out at 8% in assay [1] (setting [9]), 67% in assay [2], 5% in assay [3] (setting [10]) and 15% in assay [4].

`Cc1noc(N2CC3CC(N4CCC5(CC4)CNC(=O)O5)CC2C3)n1` (single isomer, unassigned) [11-3 Isomer 2]: the EC50 in assay [1] (setting [5]) is more than 20 µM; in assay [2] (setting [7]), 0.0708 µM; in assay [3] (setting [8]), more than 20 µM; in assay [4], more than 20 µM. The Emax in assay [1] (setting [9]) is 21%; in assay [2], 65%; in assay [3] (setting [10]), 22%; in assay [4] it was 11%.

As for `Cc1noc(N2CC3CCC2CC3N2CCC3(CC2)CNC(=O)C3)n1` (single isomer, unassigned) [12-1 Isomer 2], the EC50 is more than 20 µM in assay [1] (setting [5]), 0.0324 µM in assay [2] (setting [7]), more than 20 µM in assay [3] (setting [8]) and 0.117 µM in assay [4]. Also, the Emax was 6% in assay [1] (setting [9]) and 2% in assay [3] (setting [10]). In addition, the “% Emax cf. ACh (M1)” value in assay [2] (setting [6]) is recorded as “(106) %”. The “% Emax cf. ACh (M4)” value in assay [4] is “(30) %”.

As to `Cc1noc(N2CC3CCC2CC3N2CCC3(CC2)CNC(=O)O3)n1` (single isomer, unassigned) [12-2 Isomer 2], the EC50 in assay [1] (setting [5]) was more than 20 µM; in assay [2] (setting [7]), 0.398 µM; in assay [3] (setting [8]) it was more than 20 µM; in assay [4], more than 20 µM. Further, the Emax in assay [1] (setting [9]) stood at 14%; in assay [2], 80%; in assay [3] (setting [10]), 1%; in assay [4], 18%.
